# According to patent US9296687B2, “Modulators of HSP70/DnaK function and methods of use thereof” (The Trustees of the University of Pennsylvania, priority 2008, dated 2016):
# Entries after “also recorded” stand apart in the source; their conditions may differ.
# Columns and labels:
# Eμ-Myc transgenic mice = experiment: Eμ-Myc mouse model of lymphomagenesis; format: in vivo; conditions: 20 mg/kg weekly i.p. from 6 weeks of age
# Method: To evaluate the efficacy of PES as a chemopreventative agent, Eμ-Myc transgenic mice were injected every 5 days, starting at 8 weeks of age, with either vehicle or PES (40 mg/kg) prepared in PBS. All animals received a total of 7 injections, either with PES or vehicle. Consequently, no injection was given after day 86. All mice were observed daily for signs of morbidity and the development of lymphoma. All experiments with mice were approved by, and conformed to, the guidelines of the Institutional Animal Care and Use Committee of the Fox Chase Cancer Center. These mice may also be used to advantage to test the beneficial therapeutic combinations of agents and/or treatments described herein.
# Beginning at 6 weeks of age, Eμ-myc transgenic mice were treated either with vehicle, 20 mg/kg PES or 20 mg/kg PES-Cl with weekly i.p. injections of tested compound (FIG. 27).
# H1299 and FaDu cells = experiment: Western blot of autophagy and apoptosis markers; format: cell-based, human; conditions: 10 μM, 24, 48 and 72 hours
# Method: Tumorogenic cells H1299 and FaDu cells were seeded in 10 cm plates and were treated with 10 μM PES or 10 μM PES-Cl. DMSO treated cells were used as a vehicle treated control. Twenty-four, 48 and 72 hours post-treatment the cells were scrapped and protein extracts were generated. Western blotting was performed as described hereinabove. The antibodies used in the protocol were p62 (Santa Cruz), Hsp70 (Cell Signaling), cleaved lamin A (Cell Signaling), Hsp40 (Cell Signaling), γH2A.X (Millipore), and actin (Sigma).
# FADU cells = experiment: Guava Nexin assay (Annexin V / 7-AAD); format: cell-based, human; conditions: 10 μM, 24, 48 and 72 hours
# Description: (§1) The effect of PES-Cl on apoptosis was observed using Guana Nexin Reagent (Millipore) in H1299 and FaDu cells. The Guana Nexin Assay utilizes Annexin V-PE to detect phosphatidylserine (PS) on the external membrane of apoptotic cells. The cell impermeant dye, 7-AAD, is also used in the Guava Nexin Assay as an indicator of cell membrane structural integrity. 7-AAD is excluded from live, healthy cells as wells as early apoptotic cells. Three populations of cells can be distinguished in the assay: Non-Apoptotic cells (Annexin V(−) and 7-AAD(−)), Early Apoptotic cells (Annexin V(+) and 7-AAD(−)), and Late Stage Apoptotic and dead cells (Annexin V(+) and 7-AAD(+)). The H1299 and FaDu cells were seeded on 24-well plates and treated with 10 μM PES or 10 μM PES-Cl. DMSO treated cells were used as a vehicle control. Four, 24 and 48 hours post-treatment, the H1299 cells were washed with PBS and trypsinized. For FaDu cells, the time course was 24, 48 and 72 hours. The cells were pelleted and resuspended in Guava Nexin reagent as per the manufacturer instructions and the readings were obtained with a Guava reader (Guava Technologies, Millipore). The total number of cells that were in Late Stage Apoptosis or dead (by necrotic or apoptotic mechanisms) was analyzed in density plots to determine as Annexin V positive.
# H1299 cells [1] = experiment: Guava Nexin assay (Annexin V / 7-AAD); format: cell-based, human; conditions: 10 μM, 4, 24 and 48 hours
# Description: as §1
# [2] = test system: H1299 and FaDu; 6113 and WI38; experiment: MTT assay, tumorogenic versus normal fibroblast cell lines; format: cell-based, human; conditions: various concentrations, 48 hours
# Method: (§2) H1299 cells were seeded on […] and treated with 10 μM PES or 10 μM PES-Cl. DMSO treated cells were used as a control and the proliferation of the H1299 cells was observed over 24 and 48 hours of treatment. The cells were imaged by light microscopy with 20× magnification (FIG. 28). Non-tumorogenic and tumorogenic cells were then treated with PES-Cl to observe its toxicity and effect on proliferation. Two tumorogenic cell lines (H1299 and FaDu) and two normal fibroblast cell lines (6113 and WI38) were seeded on a 96-well plate. The cells were treated with various concentrations of PES and PES-Cl. Forty-eight hours post-treatment MTT assays (Cayman Chemical Company) were performed (FIG. 29).
# H1299 cells [3] = experiment: Proliferation observed by light microscopy; format: cell-based, human; conditions: 10 μM, 24 and 48 hours
# Method: as §2
# [4] = test system: SKBR3 human breast adenocarcinoma cells; experiment: MTT assay; format: cell-based; conditions: various concentrations, 72 hours
# Method: SKBR3 human breast adenocarcinoma cells were seeded and treated with PES and PES-Cl at various concentrations.
# Scc56 cell line = experiment: MTT cell viability assay, PES-Cl with Temsirolimus; format: cell-based, human; conditions: singly and together, varying concentrations
# Method: PES-Cl was tested in combination with Temsirolimus, an mTOR inhibitor, to determine whether they act synergistically to kill cells. Head and neck cancer cells of the Scc56 cell line were treated with PES-Cl and Temsirolimus, singly and together, at varying concentrations utilizing an MTT assay.
# HSP70 = HSP70 (Homo sapiens, UniProt P0DMV8); experiment: Capture of HA-tagged HSP70 constructs from transfected H1299 cells with biotinylated compound; format: binding; parameters: expressed in transfected cells; host or cells: H1299; conditions: biotinylated compound, 6 hours
# Method: FIG. 1. PES Binds to HSP70. (A) Whole cell extracts (WCE) prepared from A875 and BCL-xL over-expressing U2OS human osteosarcoma cells (BX-U2OS) cells, treated with Biotin or Biotin-PES (B-PES), were captured using NeutrAvidin agarose resins. HSP70-family proteins were identified as the major product in the excised band of ˜70 kDa shown in both Coomassie gels. (B and C) WCE were prepared from the cell lines indicated following 24 h treatment with 20 μM Biotin or B-PES and examined for the expression of proteins indicated (left panel of B and C) by western blot analysis; note that different exposure times were used to visualize these proteins. […] (D) In vitro evidence for an interaction between B-PES and HSP70. Full-length human HSP70 and human HSP90 proteins were in vitro translated in the presence of ^35S-methionine, mixed with B-PES coupled to NeutrAvidin resins, and eluted using 100 mM DTT. The resulting DTT eluates were separated by polyacrylamide gel electrophoresis (SDS-PAGE) and visualized by autoradiography. (E) B-PES interacts with the C-terminal region of HSP70. H1299 cells were transfected with the indicated hemagglutinin (HA)-tagged constructs and exposed to B-PES. B-PES containing complexes were captured by NeutrAvidin Resins, eluted following 100 mM DTT treatment, and immunoblotted with anti-HA antibody following SDS-PAGE. (F) Non-transformed human IMR90 fibroblasts or H1299 lung carcinoma cells were treated with the indicated concentrations of PES for 24 h and cell viability was determined by MTT assays. (G) WCE were prepared from the cell lines indicated following 5 hr treatment with 20 μM PES or B-PES and examined for the expression of proteins indicated (left panel) by western blot analysis; note that different exposure times were used to visualize these proteins. B-PES-containing complexes were captured by NeutrAvidin resins, eluted following 50 mM DTT treatment, and immunoblotted using the indicated antibodies.
# The free amide group of PES-Cl was biotinylated and added to HA-tagged HSP70-transfected H1299 cells. The treatment of the cells occurred for 6 hours. The complexes were pulled down with NeutrAvidin beads, eluted with 100 mM DTT treatments, separated with SDS-PAGE and detected with anti-HA antibody (Millipore) by Western blot.
# Docking studies were performed using the C-terminal HSP70 crystal structure (FIG. 32) to elucidate the PES binding site in silico (FIG. 33). Blind docking methods were used in the program AutoDock to locate potential PES binding sites. These methods use a course grid docking approach, encompassing the entire protein, to identify favorable binding sites using a known binding ligand, and are examined by hand to support the AutoDock data. […]
# Chain of HSP70 (P0DMV8 2-641): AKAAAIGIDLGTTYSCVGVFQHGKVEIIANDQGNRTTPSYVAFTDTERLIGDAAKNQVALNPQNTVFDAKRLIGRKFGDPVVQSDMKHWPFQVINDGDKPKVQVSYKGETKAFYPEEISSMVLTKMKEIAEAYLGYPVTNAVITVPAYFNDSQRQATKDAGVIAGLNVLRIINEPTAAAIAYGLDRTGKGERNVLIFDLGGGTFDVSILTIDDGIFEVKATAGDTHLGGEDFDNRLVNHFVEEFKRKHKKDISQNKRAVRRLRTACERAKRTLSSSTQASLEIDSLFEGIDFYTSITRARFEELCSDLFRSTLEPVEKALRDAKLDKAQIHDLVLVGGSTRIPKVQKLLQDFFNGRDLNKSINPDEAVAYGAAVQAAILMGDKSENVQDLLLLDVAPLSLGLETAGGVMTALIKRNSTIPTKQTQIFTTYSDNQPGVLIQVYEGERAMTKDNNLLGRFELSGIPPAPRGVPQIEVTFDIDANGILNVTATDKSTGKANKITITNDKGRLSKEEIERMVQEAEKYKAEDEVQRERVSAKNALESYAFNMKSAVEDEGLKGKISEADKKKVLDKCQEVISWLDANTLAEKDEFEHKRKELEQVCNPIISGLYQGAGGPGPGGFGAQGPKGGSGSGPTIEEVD
structure (smiles),measurement,setting,value
"NS(=O)(=O)C#Cc1cccc(Cl)c1 [PES-Cl, 2-(3-chlorophenyl)-ethynesulfonamide]",survival,Eμ-Myc transgenic mice,extended survival
same,apoptosis,H1299 and FaDu cells,induced apoptosis
same,autophagy,H1299 and FaDu cells,inhibited autophagy
same,apoptosis and cell death (Annexin V positive cells),FADU cells,induced apoptosis and cell death; also recorded: superior compound for induction of apoptosis
same,apoptosis and cell death (Annexin V positive cells),H1299 cells [1],induced apoptosis and cell death; also recorded: superior compound for induction of apoptosis
same,"cell survival, tumorogenic versus non-tumorogenic cells",[2],greater concentration dependent effect on cell survival in tumorogenic cells; also recorded: superior and specific inhibitor of proliferation of tumor cells with limited toxicity to normal cells
same,proliferation,H1299 cells [3],inhibits the proliferation of H1299 cells
same,cytotoxicity compared to PES,[4],superior cytotoxic agent when compared to PES
same,combination effect with Temsirolimus,Scc56 cell line,synergistic effect resulting in enhanced dose-dependent cytotoxicity
same,interaction with HA-tagged HSP70,HSP70,interact with HSP70
